From publication PMC5780498, “Discovery of novel bacterial topoisomerase I inhibitors by use of in silico docking and in vitro assays” (Scientific Reports, 2018)
Values after ≈ are worked out from the molar mass of the structure shown. Where two headings read alike, the source gives them in different places.

Tested on: M. smegmatis clone overexpressing recombinant MtbTopI (M+ strain)
Assay: microbe, parasite or virus in culture
Type: cell-based, Mycobacterium smegmatis
Conditions: Mycolicibacterium smegmatis
[1] = 48 h, read-out: M+ Growth Inhibition (MIC)
[2] = read-out: M+ Growth Inhibition with TZ (MIC)

## Cc1c(C(=O)N2CCC(c3nnc(-c4nccc5ccccc45)o3)CC2)oc2ccccc12 [Compound 2]
[1]
  MIC: > 250 µM
[2]
  MIC: 62.5 µM (≈ 27.4 µg/mL)

## COc1ccc2c(c1)NC1(CCN(C(=O)Cc3c[nH]c4ccccc34)CC1)NS2(=O)=O [Compound 3]
[1]
  MIC: > 250 µM
[2]
  MIC: 62.5 µM (≈ 27.5 µg/mL)

## Cc1ccc(CN2C[C@]34C=C[C@H](O3)C(C(=O)N3CCn5cccc5C3)C4C2=O)cc1C (stereo partly shown) [Compound 7]
[1]
  MIC: > 500 µM
[2]
  MIC: > 500 µM

## Cc1cc2oc(C(=O)N3CCC(c4nc5ccccc5[nH]4)CC3)c(C)c2cc1C [Compound 8]
[1]
  MIC: > 500 µM
[2]
  MIC: 31.3 µM (≈ 12.1 µg/mL)

## Cc1ccc2[nH]c(C3CCN(C(=O)c4oc5ccc(C)cc5c4C)CC3)nc2c1 [Compound 9]
[1]
  MIC: > 500 µM
[2]
  MIC: 31.3 µM (≈ 12.1 µg/mL)

## Cc1ccc2oc(C(=O)N3CCC(O)(c4cccc(C(F)(F)F)c4)CC3)c(C)c2c1 [Compound 10]
[1]
  MIC: > 500 µM
[2]
  MIC: 46.9 µM (≈ 19.6 µg/mL)

## Cc1c(C(=O)N2CCCCC2CCc2ccc(O)cc2)oc2c(F)cccc12 (stereo not shown) [Compound 11]
[1]
  MIC: > 500 µM
[2]
  MIC: 125 µM (≈ 47.7 µg/mL)

## Cc1ccc2c(C)c(C(=O)N3CCC4(CC(=O)c5ccccc5O4)C3)oc2c1 (stereo not shown) [Compound 12]
[1]
  MIC: > 500 µM
[2]
  MIC: > 500 µM
